Experimental data published in ChEMBL document CHEMBL5360606, “Discovery of New Binders for DCAF1, an Emerging Ligase Target in the Targeted Protein Degradation Field” (ACS Med Chem Lett, 2023).

Experiments:
[1] = target: T1, Polycomb protein EED (Homo sapiens, UniProt O75530); assay: Binding affinity to his-tagged EED (76 to 441 residues) (unknown origin) expressed in Escherichia coli BL21 (DE3) assessed as dissociation constant by SPR analysis
[2] = target: T1, Polycomb protein EED; assay: Binding affinity to his-tagged EED (76 to 441 residues) (unknown origin) expressed in Escherichia coli BL21 (DE3) using H3K27me3 as substrate assessed as dissociation constant

T1 sequence (O75530 whole entry, the tested form may be a part): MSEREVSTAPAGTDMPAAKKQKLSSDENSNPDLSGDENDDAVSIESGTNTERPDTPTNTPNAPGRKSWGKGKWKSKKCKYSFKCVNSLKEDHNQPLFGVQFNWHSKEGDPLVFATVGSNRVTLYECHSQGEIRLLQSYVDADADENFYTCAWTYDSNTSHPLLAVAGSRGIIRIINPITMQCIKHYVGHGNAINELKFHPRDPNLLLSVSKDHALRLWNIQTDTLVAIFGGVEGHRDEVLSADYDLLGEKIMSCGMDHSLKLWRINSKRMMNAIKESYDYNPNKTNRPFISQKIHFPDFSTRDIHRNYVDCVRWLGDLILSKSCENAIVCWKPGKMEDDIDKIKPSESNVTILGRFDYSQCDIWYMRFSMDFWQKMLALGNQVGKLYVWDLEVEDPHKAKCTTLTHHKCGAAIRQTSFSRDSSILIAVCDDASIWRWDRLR

With Fc1ccccc1C1=Cc2ccccc2C2=NCCN12 the Kd [1] was 13.5 µM.
For Clc1ccc(C2(C3=Cc4ccccc4C4=NCCN34)CC2)cc1, the Kd [2] was 25 µM.
NC1=NCC(c2cccc(Oc3ccc(Cl)cc3)c2)C1 (centres undefined) showed a Kd [1] of roughly 360 µM.
CC(C)(Cc1ccccc1)C1=Cc2ccccc2C2=NCCN12 was tested, and the Kd [2] was 21 µM.
